Assay results published in PubChem BioAssay (NCI).
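All cell lines were grown in 96-well plates and treated with compound for 48 hours. GI50 marks 50% less growth. TGI: concentration producing complete growth inhibition.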

Assays:
Assay in all cases: NCI anticancer screen, dose series, 48 h
MDA-MB-435 = test system: MDA-MB-435
RXF 393 renal = test system: RXF 393 renal
TK-10 renal = test system: TK-10 renal
HL-60(TB) leukemia = test system: HL-60(TB) leukemia
786-0 renal = test system: 786-0 renal
OVCAR-4 ovarian = test system: OVCAR-4 ovarian
HOP-92 NSCLC = test system: HOP-92 NSCLC
T-47D breast = test system: T-47D breast
SR leukemia = test system: SR leukemia
OVCAR-8 ovarian = test system: OVCAR-8 ovarian

Row | SMILES | TGI (MDA-MB-435) | TGI (RXF 393 renal) | TGI (TK-10 renal) | TGI (HL-60(TB) leukemia) | TGI (786-0 renal) | TGI (OVCAR-4 ovarian) | TGI (HOP-92 NSCLC) | TGI (T-47D breast) | TGI (SR leukemia) | TGI (OVCAR-8 ovarian) | GI50 (MDA-MB-435) | GI50 (RXF 393 renal) | GI50 (TK-10 renal) | GI50 (HL-60(TB) leukemia) | GI50 (OVCAR-8 ovarian) | GI50 (OVCAR-4 ovarian) | GI50 (HOP-92 NSCLC) | GI50 (T-47D breast) | GI50 (SR leukemia)
1 | CC1(C)N=C(N)N=C(N)N1c1cccc(Cl)c1 | > 100 µM | > 100 µM | > 100 µM | > 100 µM | > 100 µM | > 100 µM | > 100 µM | > 100 µM | > 100 µM | – | – | – | – | – | – | – | – | – | –
2 | CO[P@@]1(=O)O[C@@H](c2ccccc2)[C@H](O)[C@]1(O)c1ccccc1 | > 100 µM | > 100 µM | > 100 µM | > 100 µM | > 100 µM | > 100 µM | > 100 µM | > 100 µM | > 100 µM | > 100 µM | – | – | – | – | – | – | – | – | –
3 | CC(C)(C)/C(O)=C\c1nc2cc(F)c(F)cc2[nH]c1=O | > 100 µM | > 100 µM | > 100 µM | > 100 µM | > 100 µM | > 100 µM | > 100 µM | > 100 µM | > 100 µM | > 100 µM | – | – | – | – | – | – | – | – | –
4 | CC(=O)Oc1ccn2nc(C)c(Br)c2c1 | > 61.8 µM | > 100 µM | > 100 µM | > 86.5 µM | > 100 µM | > 100 µM | > 100 µM | > 100 µM | > 100 µM | > 100 µM | – | – | – | – | – | – | – | – | –
5 | CCC1([N+](=O)[O-])CN(N=O)C1 | > 100 µM | > 100 µM | > 100 µM | > 100 µM | > 100 µM | > 100 µM | > 100 µM | > 100 µM | > 100 µM | > 100 µM | – | – | – | – | – | – | – | – | –
6 | O=C1c2cc3c(cc2CC12Cc1ccc4c(c1C2=O)CCC4)CCC3 (stereo unspecified) | > 100 µM | > 100 µM | > 100 µM | > 100 µM | > 100 µM | > 100 µM | > 100 µM | > 100 µM | > 100 µM | > 100 µM | – | – | – | – | – | – | – | – | –
7 | CSc1ncc2c(n1)-c1ccccc1OC2NC1CC1 (stereo unspecified) | > 100 µM | > 100 µM | > 100 µM | 73.3 µM | > 100 µM | > 100 µM | > 100 µM | 91.7 µM | > 100 µM | > 100 µM | – | – | – | – | – | – | – | – | –
8 | Clc1ccc(/C(=C/c2ccccc2)Cn2ccnc2)cc1 | 67.7 µM | 50.7 µM | > 100 µM | 46.3 µM | > 100 µM | > 100 µM | 67.2 µM | > 100 µM | 78.4 µM | > 100 µM | – | – | – | – | – | – | – | – | –
9 | COc1ccc(C(=O)/C=C/SC(=NC#N)SC)cc1 | 49.2 µM | 35.1 µM | 42.2 µM | > 100 µM | 38.8 µM | > 100 µM | > 100 µM | 47.3 µM | 19.6 µM | 46.8 µM | – | – | – | – | – | – | – | – | –
10 | CCN(CC)CCCCNc1c2ccc(Cl)cc2nc2ccc(OC)cc12 | 2.31 µM | 1.78 µM | 4.59 µM | 3.2 µM | – | 2.44 µM | 1.87 µM | 4.54 µM | 1.53 µM | 3.35 µM | 1.05 µM | 0.381 µM | 0.925 µM | 1.03 µM | 0.406 µM | 0.364 µM | 0.271 µM | 1.22 µM | 0.207 µM
11 | CSc1nc(=O)c2nc(-c3cccs3)c(-c3cccs3)nc2n1C | > 100 µM | 59.6 µM | > 100 µM | > 100 µM | > 100 µM | > 100 µM | 83.5 µM | 80.4 µM | > 100 µM | > 100 µM | – | – | – | – | – | – | – | – | –
12 | CC(C)=C/C(CC(O)(C(F)(F)F)C(F)(F)F)=N\O | > 100 µM | > 100 µM | > 100 µM | > 100 µM | > 100 µM | > 100 µM | > 100 µM | > 100 µM | > 100 µM | > 100 µM | – | – | – | – | – | – | – | – | –
13 | CC1=NN2C(=N)/C(=C/c3ccc(F)cc3)C(=O)N=C2S1 | > 100 µM | > 100 µM | > 100 µM | > 100 µM | > 100 µM | > 100 µM | > 100 µM | > 100 µM | > 100 µM | > 100 µM | – | – | – | – | – | – | – | – | –
14 | O=c1c2c3c(sc2nc2n1N=C(c1ccc(Br)cc1)CS2)CCCC3 | > 100 µM | > 100 µM | > 100 µM | > 100 µM | > 100 µM | > 100 µM | > 100 µM | > 100 µM | > 100 µM | > 100 µM | – | – | – | – | – | – | – | – | –
15 | CC(C)=CCc1c(O)cc2oc(-c3ccc(O)cc3O)cc(=O)c2c1O | > 75.5 µM | 64.8 µM | 69.7 µM | 51 µM | 74.5 µM | 50.8 µM | > 88.6 µM | 49.8 µM | > 65.6 µM | > 100 µM | – | – | – | – | – | – | – | – | –
16 | Cn1c(=O)cc(NNc2ccc(Cl)c(Cl)c2)[nH]c1=O | 14.1 µM | 38.8 µM | 30.6 µM | 91 µM | 25.9 µM | 28.3 µM | 28.5 µM | 21.1 µM | > 100 µM | 31 µM | – | – | – | – | – | – | – | – | –
17 | CSc1ccc(/C=C2\N=C(c3ccccc3)N(c3nc4cc(Cl)c(F)cc4s3)C2=O)cc1 | > 100 µM | 57.5 µM | > 100 µM | > 100 µM | > 100 µM | 82.7 µM | > 100 µM | > 100 µM | > 100 µM | 51.7 µM | – | – | – | – | – | – | – | – | –
18 | Cc1cc(S(=O)(=O)N=C2Nc3cccc4cccc(c34)N2)c(S)cc1Cl | > 100 µM | > 100 µM | – | > 100 µM | > 100 µM | > 100 µM | > 100 µM | > 100 µM | > 100 µM | > 100 µM | – | – | – | – | – | – | – | – | –
